Legend:
[1] = tested on: pacing heart failure preparations (Yorkshire pigs); assay: Systemic and pulmonary hemodynamics after A1 adenosine receptor antagonist infusion in pacing heart failure pigs (Example 1); assay type: in vivo, pig
From the text: Nineteen Yorkshire pigs (20-25 kg, male Hambone Farms, SC) were instrumented in order to induce pacing cardiac heart failure as described in Tomita et al., Circulation, 83, pp. 635-644 (1991). Briefly, under isoflurane anesthesia (3% in 1.5 L/min of oxygen) and through a left thoracotomy, a shielded stimulated electrode was sutured onto the left atrium, connected to a modified programmable pacemaker (8329 Medtronic, Inc., Minneapolis, Minn.) and buried in a subcutaneous pocket. Ten to fourteen days following recovery from the surgical procedure, a baseline echocardiographic study was performed and pacing initiate at 240 beats/min for 3 weeks. An additional group of 7 normal control animals were cared for in identical fashion with the exception of the pacing protocol. At the conclusion of the 3-week pacing period, the pacemakers were de-activated and echocardiographic studies were performed. For these studies, the animals were brought to the laboratory and the pacemakers were deactivated. Two-dimensional and M-mode echocardiographic studies (ATL Ulmark VI, 2.25 MHz transducer, Bothell, Wash.) were used to image the left ventricle from a right parasternal approach. Following the echocardiographic study, the animals were prepared for acute instrumentation and initiation of the study protocol.
The pigs were anesthetized with intravenous boluses of sufentanyl 2.0 μg/kg, etomidate 0.3 mg/kg, and vecuronium 10 mg, after which a tracheostomy was performed. A tubocurarine 12 mg intravenous bolus was administered after obtaining arterial pressure. Anesthesia was maintained throughout the procedure by continuous intravenous infusions of morphine sulfate 3 mg/kg/hr and tubocurarine 2 mg/hr. Etomidate 0.1 mg/kg intravenous was also given at 30 minute intervals. A maintenance infusion of 10 ml/kg/hr of lactated Ringer's solution was maintained throughout the protocol. […] A multi-lumened thermodilution catheter (7.5 Fr, Baxter Healthcare Corp., Irvine, Calif.) was positioned in a pulmonary artery via the right external jugular vein and a large bore catheter (7 Fr) was placed in the left external jugular vein for fluid administration. The carotid artery was exposed and cannulated, and the catheter (7 Fr) was advanced to the aortic root for aortic blood pressure measurements and blood samplings.
Following instrumentation and a 15-minute stabilization period, baseline hemodynamics were recorded and digitized. Thermodilution derived cardiac output and ejection fraction were obtained from the pulmonary artery catheter in triplicate. All measurements were simultaneously recorded with the ventilator temporarily suspended in order to prevent respiratory artifact the recordings. An arterial sample was drawn for electrolyte assays. Pulmonary and systemic vascular resistances were computed from the thermodilution cardiac output and pressure measurements using standard formulae.
Following instrumentation and collection of baseline measurements, the animals were randomly assigned to receive either vehicle infusion (polyethylene glycol, 3 ml intravenous, n=10) or the A1 adenosine receptor antagonist (1 mg/kg 1,8-(3-Oxa-tricyclo[3.2.1.0^2,4]oct-6-yl)-1,3-dipropyl-3,7-dihydro-purine-2,6-dione (BG9719); n=9). Following infusion of vehicle or BG9719, the hemodynamic measurements described in the previous section were repeated at 10, 30, 60, 90, 120 minutes post infusion.
Changes in hemodynamics were initially examined between the control and A1 adenosine receptor antagonist (BG9719) groups by ANOVA. Comparisons between these baseline values following randomization were performed by a 2-way ANOVA. Comparisons of these parameters following infusion were compared using a multi-way ANOVA for repeated measures. Pair-wise comparisons were performed with a Bonferroni adjusted t-test. All statistical analyses were performed using statistical software programs (BMDP Statistical Software Inc. University of California Press, Los Angeles, Calif.).

[2] = tested on: pacing HF preparations (Yorkshire pigs); assay: Systemic and pulmonary hemodynamics after A1 adenosine receptor antagonist infusion in pacing heart failure pigs (Example 2); assay type: in vivo, pig
Method: Four Yorkshire pigs (25-30 kg, male, Hambone Farms, SC) were implanted with a pacemaker (8329, Medtronic, Inc., Minneapolis, Minn.) in order to induce pacing CHF as described above. Ten to 14 days following recovery from the surgical procedure, a baseline echocardiographic study (ATL Ultramark VI, 2.25 MHz transducer, Bothell, Wash.) was performed and pacing initiated at 240 beats/min for 3 weeks. An additional group of 6 normal control animals were cared for in identical fashion with the exception of the pacing protocol. At the conclusion of the 3-week pacing period, the pacemakers were deactivated and echocardiographic studies were used to image the LV from a right parasternal approach. Following the echocardiographic study, the animals were prepared for acute instrumentation and initiation of the study protocol.
The pigs were anesthetized (i.v. sufentanyl […], etomidate 0.3 mg/kg) and paralyzed (vecuronium 10 mg, tubocurarine 12 mg). A maintenance infusion of 10 ml/kg/hr of lactated ringer's solution was maintained throughout the protocol. A thermodilution catheter (7.5 Fr, Baxter Healthcare Corp., Irvine, Calif.) was positioned in the pulmonary artery via the right external jugular vein and a large bore catheter (7 Fr) was placed in the left external jugular vein for fluid administration. The carotid artery was exposed and cannulated, and the catheter (7 Fr) was advanced to the aortic root for aortic blood pressure measurements and blood sampling drained.
Following instrumentation and a 10-minute stabilization period, baseline hemodynamics were recorded and digitized. Thermodilution derived cardiac output and ejection fraction were obtained from the pulmonary artery catheter in triplicate. Pulmonary and systemic vascular resistances were computed from the pressure measurements and cardiac output and using standard formulae.
Following instrumentation and collection of baseline measurements, the A1 receptor antagonist (3-[4-(2,6-Dioxo-1,3-dipropyl-2,3,6,7-tetrahydro-1H-purin-8-yl)-bicyclo[2.2.2]oct-1-yl]-propionic acid (BG9928), 1 mg/kg) was infused intravenously. Hemodynamic measurements described in the previous section were repeated at 10, 20, 30, 60, 90, and 120 minutes post infusion.
Comparisons of basal hemodynamics between the control and HF groups were performed using Student's t-test. Time-dependent changes in hemodynamics following A1 block infusion were examined by ANOVA. Pair wise comparisons were performed with a Bonferroni adjusted t-test. All statistical analyses were performed using statistical software programs (BMDP Statistical Software Inc. University of California Press, Los Angeles, Calif.). Results are presented as mean ± standard error of the mean (SEM). Values of p<0.05 were considered to be statistically significant.

[3] = BG9719 1 mg/kg infusion, 10-120 min post infusion
[4] = BG9928 1 mg/kg intravenous infusion

SMILES: CCCn1c(=O)c2[nH]c(C3CC4CC3C3OC43)nc2n(CCC)c1=O (centres unmarked) [BG9719, 8-(3-Oxa-tricyclo[3.2.1.0^2,4]oct-6-yl)-1,3-dipropyl-3,7-dihydro-purine-2,6-dione]
- pulmonary vascular resistance (PVR), decrease from baseline ([1]; 1 mg/kg intravenous infusion, 10 min post treatment, then returned to baseline levels, p<0.05): 38%
- pulmonary artery pressure (PAP), change in words ([1]; 1 mg/kg, 30 minutes after treatment, remained depressed): decreased
- pulmonary capillary wedge pressure (PCWP), change in words ([1]; 1 mg/kg, 90 minutes after treatment): decreased
- pulmonary capillary wedge pressure (PCWP) ([1]; 1 mg/kg, 90 minutes post treatment, p<0.05, mean±SEM): 9 ± 2 mmHg
- mean pulmonary artery pressure after treatment ([1]; 1 mg/kg, from 30 min post treatment, baseline 30±1 mmHg, p<0.05, mean±SEM): 23±3 mmHg
- systemic vascular resistance, change from baseline ([1]; BG9719 1 mg/kg infusion): No change
- cardiac output (CO), change from baseline [1, 3]: No change
- heart rate (HR), change from baseline [1, 3]: No change
- mean arterial pressure (MAP), change from baseline [1, 3]: No change

SMILES: CCCn1c(=O)c2[nH]c(C34CCC(CCC(=O)O)(CC3)CC4)nc2n(CCC)c1=O [BG9928, 3-[4-(2,6-Dioxo-1,3-dipropyl-2,3,6,7-tetrahydro-1H-purin-8-yl)-bicyclo[2.2.2]oct-1-yl]-propionic acid]
- systemic vascular resistance (SVR), change from baseline ([2]; 1 mg/kg intravenous infusion, 10 min post treatment): no change
- pulmonary vascular resistance (PVR), fall from baseline ([2]; 1 mg/kg intravenous infusion, 10 min post treatment, p<0.05): 18%
- cardiac output, change from baseline [2, 4]: No change
- heart rate, change from baseline [2, 4]: No change
- mean arterial pressure, change from baseline [2, 4]: No change

From patent US20040259889A1, “Methods of treating pulmonary disease” (priority 2001, published 2004)
